Earlier results, collected in patent publication US8476254B2, “Methods for treating psychosis associated with interferson-α therapy” (Corcept Therapeutics, Inc., priority 2002, dated 2013).

Details: % of the daily dose; in one study (Kawai)

CC#C[C@]1(O)CC[C@H]2[C@@H]3CCC4=CC(=O)CCC4=C3[C@@H](c3ccc(N(C)C)cc3)C[C@@]21C [Mifepristone, 17-beta-hydroxy-11-beta-(4-dimethyl-aminophenyl)-17-alpha-(1-propynyl)-estra-4,9-dien-3-one]
fraction of the daily dose excreted in the urine: less than 0.5%
